From patent US9399631B2, “Polyphenol proteasome inhibitors, synthesis, and methods of use” (UNIVERSITY OF SOUTH FLORIDA, priority 2003, dated 2016)

Tests used:
Format in all cases: cell-based, human
Jurkat T cells = assay: Western blot of proteasome target proteins in Jurkat T cells; settings: for increase of IκB-α protein levels: at 6 hours
Procedure: Cell Culture, Cell Extract Preparation, and Western Blot Assay. Human leukemia Jurkat T and prostate cancer LNCaP cells were cultured in RPMI 1640 medium supplemented with 10% fetal calf serum, 100 units/ml of penicillin, and 100 μg/ml streptomycin. Human immortalized, non-transformed NK cells (YT cell line) (38) were cultured in RPMI 1640 supplemented with 1 mM MEM sodium pyruvate solution, 0.1 mM MEM non-essential amino acids solution, 10% fetal calf serum. 100 units/ml penicillin, and 100 μg/ml streptomycin. Normal (WI-38) and simian virus 40 (SV40)-transformed (VA-13) human fibroblasts were grown in Dulbecco's modified Eagle's medium supplemented with 10% fetal calf serum, 100 units/ml of penicillin and 100 μg/ml of streptomycin. All cells were maintained at 37° C. in a humidified incubator with an atmosphere of 5% CO2. A whole cell extract was prepared in accordance with An et al. (An, B. et al. Cell Death Differ, 1998, 5:1062-75). Briefly, cells were harvested, washed with PBS twice, and homogenized in a lysis buffer [50 mM Tris-HCl (pH 8.0), 5 mM EDTA, 150 mM NaCl, 0.5% NP-40, 0.5 mM phenylmethylsulfonyl fluoride, and 0.5 mM dithiothreitol] for 30 min at 4° C. Afterwards, lysates were centrifuged at 12,000×g for 15 min at 4° C., and the supernatants were collected as whole cell extracts. Equal amounts of protein extract (60 μg) were resolved by SDS-polyacrylamide gel electrophoresis and transferred to a nitrocellulose membrane using a Semi-Dry Transfer system (BIO-RAD, Hercules, Calif.). Jurkat T, LNCaP, or DU-145 cells were treated with various concentrations of synthetic or natural tea polyphenols for indicted hours. The enhanced chemiluminescence (ECL) Western blot analysis was then performed using specific antibodies to the proteins of interest (p^27kip, IκB-α, PARP, Bax or actin). The ratio of p27 or IκB-α to the corresponding actin was determined by scanning intensities of the protein bands.
Immortalized, non-transformed normal natural killer (NK) cells (YT line) (Drexler, H. G. et al. Leuk Res, 2000, 24:881-911) and human leukemic Jurkat T cells (as a control) were treated with either (−)-EGCG (as a comparison) or (−)-EGCG-amide for up to 12 hour. […] In contrast, IκB-α expression in non-transformed NK cells was unchanged during each treatment, although the basal level (and the mobility) of IκB-α protein was higher in NK cells (FIGS. 13A and 13B).
Having discovered that the synthetic GTP analogs are potent and specific inhibitors of the proteasomal chymotrypsin-like activity in vitro (FIGS. 16A, 17A, 17B, and 17C), it was then determined whether the synthetic compounds could also be effective in inhibiting intact tumor cell proteasome activity. Because inhibition of the proteasome activity in tumor cells would result in increased levels of proteasome target proteins, levels of p27 and IκB-α proteins were measured by Western blot assay in Jurkat T cells treated with each GTP. After a 12 hour treatment, (+)-EGCG at 10 μM accumulated p27 and IκB-α levels by 3.5- and 3.1-fold, respectively (FIG. 18A). In comparison, the natural (−)-EGCG accumulated p27 and IκB-α, to a slightly lesser extent, by 2.7- and 2.1-fold, respectively (FIG. 18A). In addition, synthetic (+)-GCG increased p27 and IκB-α levels by 3.7- and 3.3-fold, respectively, similar to the results from (−)-GCG treatment (FIG. 18A).

LNCaP cells [1] = assay: Soft agar colony formation assay; settings: 10 μM, 14 day-incubation
Summary of the method: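 2×10^4 human prostate cancer cells seeded in 0.3% top agar over a 0.6% agar layer (DMEM, 10% FBS) together with analogs at 50 μM or 10 μM, or solvent control. Incubated 14 days at 37 °C, 5% CO2, then stained overnight with MTT (1 mg/ml). Colonies counted; means of triplicate independent experiments ± SD.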

LNCaP cells [2] = assay: Flow cytometry cell cycle analysis, LNCaP cells; settings: 10 μM, 24 hours
Procedure: Flow Cytometry. Cell cycle analysis based on DNA content was performed as in An et al. (An, B. et al. Cell Death Differ, 1998, 5:1062-75). At each time point, cells were harvested, counted, and washed twice with PBS. Cells (5×10^6) were suspended in 0.5 ml PBS, fixed in 5 ml of 70% ethanol overnight at −20° C., centrifuged, resuspended again in 1 ml of propidium iodide staining solution (50 μg propidium iodide, 100 units RNase A and 1 mg glucose per ml PBS), and incubated at room temperature for 30 minutes. The cells were then analyzed with FACScan (Becton Dickinson Immunocytometry, Calif.), ModFit LT and WinMDI V.2.8 cell cycle analysis software (Verity Software; Topsham, Me.). The cell cycle distribution is shown as the percentage of cells containing G1, S, G2, and M phase DNA judged by propidium iodide staining The apoptotic population is determined as the percentage of cells with sub-G1 DNA content (<G1).
It has been shown that overexpression of p27 and IκB-α results in G1 arrest. If increased levels of these proteasome target proteins by synthetic GTPs are functional, it would be expected to see growth arrest of tumor cells in G1 phase. To test this hypothesis, asynchronous prostate LNCaP cells were treated with 10 μM of synthetic (+)-EGCG or (+)-GCG, along with each respective natural GTP as control, for 24 hours. Cells were then harvested, and analyzed by cell cycle analysis by flow cytometry. […] Growth arrest was determined by the increase in the percentage of the G1 population.

SMILES	accumulation of IκB-α levels (Jurkat T cells; 10 μM, 12 hour treatment) [fold]	accumulation of p27 levels (Jurkat T cells; 10 μM, 12 hour treatment) [fold]	increase of IκB-α protein levels (Jurkat T cells; treatment up to 12 hour)	increase of p27 levels (Jurkat T cells; treatment up to 12 hour) [fold]	inhibition of colony formation (LNCaP cells [1]) [%]	increase of G1 population (G1 arrest) (LNCaP cells [2]) [%]	increase in IκB-α levels as compared to (−)-EGCG (Jurkat T cells; 10 μM, 12 hour treatment) [%]	increase in p27 levels as compared to (−)-EGCG (Jurkat T cells; 10 μM, 12 hour treatment) [%]	increase in G1 arrest as compared to (−)-EGCG (LNCaP cells [2])	inhibition at 10 µM (LNCaP cells [1]; Homo sapiens, LNCaP, 336 h) [%]
O=C(O[C@@H]1Cc2c(O)cc(O)cc2O[C@@H]1c1cc(O)c(O)c(O)c1)c1cc(O)c(O)c(O)c1 [(−)-EGCG, (−)-epigallocatechin-3-gallate, reference compound]	2.1	2.7	up to 6 fold	17	99.0	~14				
O=C(N[C@@H]1Cc2c(O)cc(O)cc2O[C@@H]1c1cc(O)c(O)c(O)c1)c1cc(O)c(O)c(O)c1 [(−)-EGCG-amide, (−)-[2R,3R]-N-[5,7-Dihydroxy-2-(3,4,5-trihydroxyphenyl)-chroman-3-yl]-3,4,5-trihydroxybenzamide]			≤ 8 fold							
O=C(OC1Cc2c(O)cc(O)cc2OC1c1cc(O)c(O)c(O)c1)c1cc(O)c(O)c(O)c1 (single isomer, unassigned; (+)) [(+)-EGCG]	3.1	3.5			99.5	18	47	~30	approximately 30%	
O=C(OC1Cc2c(O)cc(O)cc2OC1c1cc(O)c(O)c(O)c1)c1cc(O)c(O)c(O)c1 (single isomer, unassigned; (+)) [(+)-GCG]	3.3	3.7				~14				91.5
